In patent publication US20240158392A1 (Janssen Biotech, Inc., priority 2021, published 2024):

These compounds were tested against SIK2 (Homo sapiens, UniProt Q9H0K1) (assay: SIK2 Enzymatic Assay High Version 2 (High ATP)). Details: not given.
Chain of SIK2 (Q9H0K1 whole entry, species assumed): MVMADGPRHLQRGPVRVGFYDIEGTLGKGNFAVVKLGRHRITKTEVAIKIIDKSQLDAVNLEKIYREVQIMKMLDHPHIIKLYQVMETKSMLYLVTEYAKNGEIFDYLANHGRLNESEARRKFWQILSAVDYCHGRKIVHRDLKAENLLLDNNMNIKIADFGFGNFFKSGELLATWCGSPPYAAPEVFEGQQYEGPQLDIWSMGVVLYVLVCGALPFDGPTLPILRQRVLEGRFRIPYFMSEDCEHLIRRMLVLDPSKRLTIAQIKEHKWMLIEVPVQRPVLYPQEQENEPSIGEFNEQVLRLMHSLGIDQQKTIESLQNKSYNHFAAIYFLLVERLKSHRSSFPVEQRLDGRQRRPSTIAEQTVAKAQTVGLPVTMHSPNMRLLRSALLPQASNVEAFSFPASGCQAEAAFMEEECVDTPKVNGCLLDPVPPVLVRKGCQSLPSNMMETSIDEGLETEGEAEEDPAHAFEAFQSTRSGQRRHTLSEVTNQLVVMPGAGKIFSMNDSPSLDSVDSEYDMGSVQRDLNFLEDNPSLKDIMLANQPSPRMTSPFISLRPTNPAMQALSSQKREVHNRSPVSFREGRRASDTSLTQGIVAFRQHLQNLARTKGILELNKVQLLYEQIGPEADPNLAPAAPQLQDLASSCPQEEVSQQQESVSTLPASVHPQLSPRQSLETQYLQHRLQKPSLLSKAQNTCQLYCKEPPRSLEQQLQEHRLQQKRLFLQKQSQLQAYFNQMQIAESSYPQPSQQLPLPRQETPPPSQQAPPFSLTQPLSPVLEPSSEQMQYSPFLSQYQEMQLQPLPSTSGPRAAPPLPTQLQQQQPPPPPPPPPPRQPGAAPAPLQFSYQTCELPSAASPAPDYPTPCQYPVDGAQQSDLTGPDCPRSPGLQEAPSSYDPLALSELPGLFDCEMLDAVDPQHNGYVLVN
Assay type: biochemical
Summary of the method: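 At room temperature, enzyme (6 nM, 2× final) was preincubated with compound for 30 min, then 6 mM ATP and 400 μM HDAC5tide (both 2× final) were added for 2 h. ADP formed was measured by ADP-Glo Max (2 h reagent, 1 h detection) using luminescence.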
With `CCN1[C@@H]2COC[C@H]1C[C@@H](Oc1cnc(C)cc1-c1ccn3nc(Nc4ccc(C(=O)NC)cn4)cc3c1)C2` [Example 530, 6-[[5-[5-[[(1S,5R)-9-ethyl-3-oxa-9-azabicyclo[3.3.1]nonan-7-yl]oxy]-2-methyl-4-pyridyl]pyrazolo[1,5-a]pyridin-2-yl]amino]-N-methyl-pyridine-3-carboxamide] the IC50 was 0.00236 µM.
Work on `CNC(=O)c1ccc(Nc2cc3cc(-c4cc(C)ncc4O[C@H]4C[C@H]5COC[C@@H](C4)N5C(C)C)ccn3n2)nc1` [Example 531, 6-[[5-[5-[[(1S,5R)-9-isopropyl-3-oxa-9-azabicyclo[3.3.1]nonan-7-yl]oxy]-2-methyl-4-pyridyl]pyrazolo[1,5-a]pyridin-2-yl]amino]-N-methyl-pyridine-3-carboxamide] yielded an IC50 of 0.00144 µM.
Compound `CNC(=O)c1ccc(Nc2cc3cc(-c4cc(C)ncc4O[C@H]4C[C@H]5COC[C@@H](C4)N5CC(C)(C)O)ccn3n2)nc1` [Example 532, 6-[[5-[5-[[(1S,5R)-9-(2-hydroxy-2-methyl-propyl)-3-oxa-9-azabicyclo[3.3.1]nonan-7-yl]oxy]-2-methyl-4-pyridyl]pyrazolo[1,5-a]pyridin-2-yl]amino]-N-methyl-pyridine-3-carboxamide] has an IC50 of 0.0135 µM.
`Cc1cc(-c2ccn3nc(NC(=O)C4CC4)cc3c2)c(OC[C@@H]2CCCN2C)cn1` [Example 572, N-[5-[2-methyl-5-[[(2S)-1-methylpyrrolidin-2-yl]methoxy]-4-pyridyl]pyrazolo[1,5-a]pyridin-2-yl]cyclopropanecarboxamide] gave an IC50 of 0.0787 µM.
Work on `Cc1cc(-c2ccn3nc(NC(=O)C4CC4)cc3c2)c(OC[C@@H]2CCN2CCF)cn1` [Example 573, N-[5-[5-[[(2S)-1-(2-fluoroethyl)azetidin-2-yl]methoxy]-2-methyl-4-pyridyl]pyrazolo[1,5-a]pyridin-2-yl]cyclopropanecarboxamide] yielded an IC50 of 0.074 µM.
`Cc1cc(-c2ccn3nc(NC(=O)C4CC4)cc3c2)c(OC[C@H]2CCN2C2CC2)cn1` [Example 574, N-[5-[5-[[(2R)-1-cyclopropylazetidin-2-yl]methoxy]-2-methyl-4-pyridyl]pyrazolo[1,5-a]pyridin-2-yl]cyclopropanecarboxamide] gave an IC50 of 0.0804 µM.
Compound `[2H]C([2H])([2H])N1CC[C@H]1COc1cnc(C)cc1-c1ccn2nc(NC(=O)C3CC3)cc2c1` [Example 575, N-[5-[2-methyl-5-[[(2S)-1-(trideuteriomethyl)azetidin-2-yl]methoxy]-4-pyridyl]pyrazolo[1,5-a]pyridin-2-yl]cyclopropanecarboxamide] has an IC50 of 0.0703 µM.
Compound `[2H]C([2H])([2H])N1CC[C@@H]1COc1cnc(C)cc1-c1ccn2nc(NC(=O)C3CC3)cc2c1` [Example 576, N-[5-[2-methyl-5-[[(2R)-1-(trideuteriomethyl)azetidin-2-yl]methoxy]-4-pyridyl]pyrazolo[1,5-a]pyridin-2-yl]cyclopropanecarboxamide] has an IC50 of 0.0728 µM.

Same assay, conditions: enzyme 6 nM, 6 mM ATP and 400 μM HDAC5tide (each 2× final concentration); 30 minutes pre-incubation, 2 hours; ADP-Glo Max luminescence; read-out: SIK2 high ATP IC50 (μM) (Test Example 2)
In the case of `Cc1cc(-c2ccn3nc(Nc4cc(C)nc(C(F)(F)F)n4)cc3c2)c(OCC(C)(C)O)cn1` [Example 537, 2-methyl-1-[[6-methyl-4-[2-[[6-methyl-2-(trifluoromethyl)pyrimidin-4-yl]amino]pyrazolo[1,5-a]pyridin-5-yl]-3-pyridyl]oxy]propan-2-ol], the IC50 is reported as 0.0241 µM.
With `Cc1cc(-c2ccn3nc(Nc4cc(C)nc(C)n4)cc3c2)c(OC[C@H]2C[C@H](O)C2)cn1` [Example 538, (1r,3r)-3-(((4-(2-((2,6-dimethylpyrimidin-4-yl)amino)pyrazolo[1,5-a]pyridin-5-yl)-6-methylpyridin-3-yl)oxy)methyl)cyclobutan-1-ol] the IC50 was 0.0129 µM.
`Cc1cnc(Nc2cc3cc(-c4cc(C)ncc4OCC(C)(C)O)ccn3n2)cn1` [Example 541, 2-methyl-1-[[6-methyl-4-[2-[(5-methylpyrazin-2-yl)amino]pyrazolo[1,5-a]pyridin-5-yl]-3-pyridyl]oxy]propan-2-ol] showed an IC50 of 0.0471 µM.
`Cc1cc(-c2ccn3nc(Nc4cc(C)nc(C)n4)cc3c2)c(O[C@H]2C[C@H](N)C2)cn1` [Example 545, 5-(5-((1r,3r)-3-aminocyclobutoxy)-2-methylpyridin-4-yl)-N-(2,6-dimethylpyrimidin-4-yl)pyrazolo[1,5-a]pyridin-2-amine] gave an IC50 of 0.0134 µM.
Compound `Cc1cc(-c2ccn3nc(Nc4cc(C)nc(C)n4)cc3c2)c(OCC2(C)COC2)cn1` [Example 546, N-(2,6-dimethylpyrimidin-4-yl)-5-[2-methyl-5-[(3-methyloxetan-3-yl)methoxy]-4-pyridyl]pyrazolo[1,5-a]pyridin-2-amine] has an IC50 of 0.0239 µM.
In the case of `Cc1cc(-c2ccn3nc(Nc4cc(C)nc(C)n4)cc3c2)c(OC2CCS(=O)(=O)CC2)cn1` [Example 550, N-(2,6-dimethylpyrimidin-4-yl)-5-[5-(1,1-dioxothian-4-yl)oxy-2-methyl-4-pyridyl]pyrazolo[1,5-a]pyridin-2-amine], the IC50 is reported as 0.0055 µM.
In the case of `Cc1cc(-c2ccn3nc(Nc4cc(C)nc(C)n4)cc3c2)c(OC2CCC(S(C)(=O)=O)CC2)cn1` (stereo not drawn) [Example 551, N-(2,6-dimethylpyrimidin-4-yl)-5-[2-methyl-5-(4-methylsulfonylcyclohexoxy)-4-pyridyl]pyrazolo[1,5-a]pyridin-2-amine], the IC50 is reported as 0.00832 µM.
In the case of `Cc1cc(-c2ccn3nc(Nc4cc(C)nc(C)n4)cc3c2)c(OC2CCC(C#N)CC2)cn1` (stereo not drawn) [Example 552, 4-[[4-[2-[(2,6-dimethylpyrimidin-4-yl)amino]pyrazolo[1,5-a]pyridin-5-yl]-6-methyl-3-pyridyl]oxy]cyclohexanecarbonitrile], the IC50 is reported as 0.00378 µM.
Work on `Cc1cc(-c2ccn3nc(Nc4cc(C)nc(C)n4)cc3c2)c(OCc2ccccc2OC(F)F)cn1` [Example 553, 5-[5-[[2-(difluoromethoxy)phenyl]methoxy]-2-methyl-4-pyridyl]-N-(2,6-dimethylpyrimidin-4-yl)pyrazolo[1,5-a]pyridin-2-amine] yielded an IC50 of 0.0101 µM.
With `Cc1cc(-c2ccn3nc(Nc4cc(C)nc(C)n4)cc3c2)c(OC[C@H](C)C(C)(C)O)cn1` [Example 554, (3S)-4-[[4-[2-[(2,6-dimethylpyrimidin-4-yl)amino]pyrazolo[1,5-a]pyridin-5-yl]-6-methyl-3-pyridyl]oxy]-2,3-dimethyl-butan-2-ol] the IC50 was 0.0275 µM.
Compound `Cc1cc(-c2ccn3nc(Nc4cc(C)nc(C)n4)cc3c2)c(OCCC(C)(C)O)cn1` [Example 555, 4-[[4-[2-[(2,6-dimethylpyrimidin-4-yl)amino]pyrazolo[1,5-a]pyridin-5-yl]-6-methyl-3-pyridyl]oxy]-2-methyl-butan-2-ol] has an IC50 of 0.00997 µM.
In the case of `Cc1cc(-c2ccn3nc(Nc4cc(C)nc(C)n4)cc3c2)c(O[C@H]2CC[C@@H](C#N)CC2)cn1` [Example 556, (1s,4s)-4-((4-(2-((2,6-dimethylpyrimidin-4-yl)amino)pyrazolo[1,5-a]pyridin-5-yl)-6-methylpyridin-3-yl)oxy)cyclohexane-1-carbonitrile], the IC50 is reported as 0.0371 µM.
`Cc1cc(-c2ccn3nc(Nc4cc(C)nc(C)n4)cc3c2)c(OCCN)cn1` [Example 557, 5-[5-(2-aminoethoxy)-2-methyl-4-pyridyl]-N-(2,6-dimethylpyrimidin-4-yl)pyrazolo[1,5-a]pyridin-2-amine] gave an IC50 of 0.0494 µM.
`Cc1cc(-c2ccn3nc(Nc4cc(C)nc(C)n4)cc3c2)c(OC[C@H](O)C2CC2)cn1` [Example 558, (1R)-1-cyclopropyl-2-[[4-[2-[(2,6-dimethylpyrimidin-4-yl)amino]pyrazolo[1,5-a]pyridin-5-yl]-6-methyl-3-pyridyl]oxy]ethanol] showed an IC50 of 0.0695 µM.
`Cc1cc(-c2ccn3nc(Nc4cc(C)nc(C)n4)cc3c2)c(OC[C@@H](O)C2CC2)cn1` [Example 559, (1S)-1-cyclopropyl-2-[[4-[2-[(2,6-dimethylpyrimidin-4-yl)amino]pyrazolo[1,5-a]pyridin-5-yl]-6-methyl-3-pyridyl]oxy]ethanol] was tested, and the IC50 was 0.00686 µM.
Work on `Cc1cc(-c2ccn3nc(Nc4cc(C)nc(C)n4)cc3c2)c(OCC2(C#N)CC2)cn1` [Example 560, 1-[[4-[2-[(2,6-dimethylpyrimidin-4-yl)amino]pyrazolo[1,5-a]pyridin-5-yl]-6-methyl-3-pyridyl]oxymethyl]cyclopropanecarbonitrile] yielded an IC50 of 0.0616 µM.
With `Cc1cc(-c2ccn3nc(Nc4cc(C)c(=O)n(C5CC5)n4)cc3c2)c(OC[C@@H]2COCCO2)cn1` [Example 561, 2-cyclopropyl-6-[[5-[5-[[(2S)-1,4-dioxan-2-yl]methoxy]-2-methyl-4-pyridyl]pyrazolo[1,5-a]pyridin-2-yl]amino]-4-methyl-pyridazin-3-one] the IC50 was 0.0619 µM.
In the case of `N#CCN1CC[C@@H](COc2cnc(C#N)cc2-c2ccn3nc(NC(=O)C4CC4)cc3c2)C1` [Example 563, N-[5-[2-cyano-5-[[(3R)-1-(cyanomethyl)pyrrolidin-3-yl]methoxy]-4-pyridyl]pyrazolo[1,5-a]pyridin-2-yl]cyclopropanecarboxamide], the IC50 is reported as 0.038 µM.
With `Cn1ccc(Nc2cc3cc(-c4cc(C#N)cnc4OC[C@@H]4CNCCO4)ccn3n2)n1` [Example 564, 5-[2-[(1-methylpyrazol-3-yl)amino]pyrazolo[1,5-a]pyridin-5-yl]-6-[[(2S)-morpholin-2-yl]methoxy]pyridine-3-carbonitrile] the IC50 was 0.00339 µM.
Compound `Cc1cc(-c2ccn3nc(NC(=O)C4CC4)cc3c2)c(OC[C@@H](N)C(F)(F)F)cn1` [Example 570, N-[5-[5-[(2R)-2-amino-3,3,3-trifluoro-propoxy]-2-methyl-4-pyridyl]pyrazolo[1,5-a]pyridin-2-yl]cyclopropanecarboxamide] has an IC50 of 0.0943 µM.
For `Cc1cc(-c2ccn3nc(Nc4cc(C)nc(C)n4)cc3c2)c(OC2CC(NS(C)(=O)=O)C2)cn1` (stereo not drawn) [Example 579, N-[3-[[4-[2-[(2,6-dimethylpyrimidin-4-yl)amino]pyrazolo[1,5-a]pyridin-5-yl]-6-methyl-3-pyridyl]oxy]cyclobutyl]methanesulfonamide], the IC50 was 0.0666 µM.
`Cc1cc(-c2ccn3nc(Nc4cc(C)nc(C)n4)cc3c2)c(O[C@H]2C[C@H](NS(C)(=O)=O)C2)cn1` [Example 580, N-[3-[[4-[2-[(2,6-dimethylpyrimidin-4-yl)amino]pyrazolo[1,5-a]pyridin-5-yl]-6-methyl-3-pyridyl]oxy]cyclobutyl]methanesulfonamide] was tested, and the IC50 was 0.00198 µM.
